Experimental data from ChEMBL document CHEMBL2380247, “Synthesis and biological evaluation of novel aliphatic amido-quaternary ammonium salts for anticancer chemotherapy: part II” (2013).
The source made the active and inactive calls. The calls are words filed in the database; no cut-off is given here.

How the values were obtained:
[1] = target: Rho-related GTP-binding protein RhoB (Homo sapiens) (UniProt P62745); test: Inhibition of RhoB transactivation in human HeLa cells by luciferase reporter assay; assay type: cell-based
Sequence of Rho-related GTP-binding protein RhoB (Homo sapiens) (P62745 whole entry): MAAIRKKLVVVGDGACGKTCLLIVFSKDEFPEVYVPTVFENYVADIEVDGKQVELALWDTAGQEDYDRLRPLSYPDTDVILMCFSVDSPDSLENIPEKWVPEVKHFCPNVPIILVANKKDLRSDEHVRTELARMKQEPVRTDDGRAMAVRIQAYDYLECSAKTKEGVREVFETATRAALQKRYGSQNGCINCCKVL

HCT-15 [2] = test: Antiproliferative activity against human HCT15 cells at 0.1 uM by SRB assay; assay type: functional
ACHN [3] = test: Antiproliferative activity against human ACHN cells at 10 uM by SRB assay; assay type: functional
NCI-H23 [4] = test: Antiproliferative activity against human NCI-H23 cells at 0.1 uM by SRB assay; assay type: functional
ACHN [5] = test: Antiproliferative activity against human ACHN cells at 1 uM by SRB assay; assay type: functional
PC-3 [6] = test: Antiproliferative activity against human PC3 cells at 10 uM by SRB assay; assay type: functional
PC-3 [7] = test: Antiproliferative activity against human PC3 cells at 3 uM by SRB assay; assay type: functional
HCT-15 [8] = test: Antiproliferative activity against human HCT15 cells at 3 uM by SRB assay; assay type: functional
PC-3 [9] = test: Antiproliferative activity against human PC3 cells by SRB assay; assay type: functional
NCI-H23 [10] = test: Antiproliferative activity against human NCI-H23 cells by SRB assay; assay type: functional
[11] = target: Rho-related GTP-binding protein RhoB (Homo sapiens) (UniProt P62745); test: Transactivation of RhoB in human HeLa cells by luciferase reporter assay; assay type: cell-based
MDA-MB-231 [12] = test: Antiproliferative activity against human MDA-MB-231 cells at 1 uM by SRB assay; assay type: functional
HCT-15 [13] = test: Antiproliferative activity against human HCT15 cells at 1 uM by SRB assay; assay type: functional
NUGC-3 [14] = test: Antiproliferative activity against human NUGC3 cells at 10 uM by SRB assay; assay type: functional
ACHN [15] = test: Antiproliferative activity against human ACHN cells by SRB assay; assay type: functional
NCI-H23 [16] = test: Antiproliferative activity against human NCI-H23 cells at 1 uM by SRB assay; assay type: functional
ACHN [17] = test: Antiproliferative activity against human ACHN cells at 0.3 uM by SRB assay; assay type: functional
NUGC-3 [18] = test: Antiproliferative activity against human NUGC3 cells by SRB assay; assay type: functional
NUGC-3 [19] = test: Antiproliferative activity against human NUGC3 cells at 0.3 uM by SRB assay; assay type: functional
HCT-15 [20] = test: Antiproliferative activity against human HCT15 cells at 0.3 uM by SRB assay; assay type: functional
NUGC-3 [21] = test: Antiproliferative activity against human NUGC3 cells at 0.1 uM by SRB assay; assay type: functional
PC-3 [22] = test: Antiproliferative activity against human PC3 cells at 0.3 uM by SRB assay; assay type: functional
NCI-H23 [23] = test: Antiproliferative activity against human NCI-H23 cells at 3 uM by SRB assay; assay type: functional
MDA-MB-231 [24] = test: Antiproliferative activity against human MDA-MB-231 cells at 0.3 uM by SRB assay; assay type: functional
HCT-15 [25] = test: Antiproliferative activity against human HCT15 cells at 10 uM by SRB assay; assay type: functional
ACHN [26] = test: Antiproliferative activity against human ACHN cells at 3 uM by SRB assay; assay type: functional
HCT-15 [27] = test: Antiproliferative activity against human HCT15 cells by SRB assay; assay type: functional
PC-3 [28] = test: Antiproliferative activity against human PC3 cells at 1 uM by SRB assay; assay type: functional
ACHN [29] = test: Antiproliferative activity against human ACHN cells at 0.1 uM by SRB assay; assay type: functional
NUGC-3 [30] = test: Antiproliferative activity against human NUGC3 cells at 3 uM by SRB assay; assay type: functional
NCI-H23 [31] = test: Antiproliferative activity against human NCI-H23 cells at 10 uM by SRB assay; assay type: functional
MDA-MB-231 [32] = test: Antiproliferative activity against human MDA-MB-231 cells at 0.1 uM by SRB assay; assay type: functional
NCI-H23 [33] = test: Antiproliferative activity against human NCI-H23 cells at 0.3 uM by SRB assay; assay type: functional
NUGC-3 [34] = test: Antiproliferative activity against human NUGC3 cells at 1 uM by SRB assay; assay type: functional
MDA-MB-231 [35] = test: Antiproliferative activity against human MDA-MB-231 cells at 3 uM by SRB assay; assay type: functional
MDA-MB-231 [36] = test: Antiproliferative activity against human MDA-MB-231 cells by SRB assay; assay type: functional
PC-3 [37] = test: Antiproliferative activity against human PC3 cells at 0.1 uM by SRB assay; assay type: functional
MDA-MB-231 [38] = test: Antiproliferative activity against human MDA-MB-231 cells at 10 uM by SRB assay; assay type: functional

**Q.** CCCCCCCCCCCCCCCCCC(=O)NCCC[N+](C)(C)C was tested. Which inhibition [1] did it give?
**A.** Active

**Q.** And the growth, % of control at 0.1 µM (HCT-15 [2])?
**A.** 90.7%

**Q.** What about the growth, % of control at 10 µM (ACHN [3]) of the same compound?
**A.** 42.8%

**Q.** What about the growth, % of control at 0.1 µM (NCI-H23 [4]) of the same compound?
**A.** 102%

**Q.** And the growth, % of control at 1 µM (ACHN [5])?
**A.** 85%

**Q.** What about the growth, % of control at 10 µM (PC-3 [6]) of the same compound?
**A.** -14.7%

**Q.** And the growth, % of control at 3 µM (PC-3 [7])?
**A.** 3.63%

**Q.** What about the growth, % of control at 3 µM (HCT-15 [8]) of the same compound?
**A.** 30.8%

**Q.** And the GI50 (PC-3 [9])?
**A.** 520 nM

**Q.** What about the GI50 (NCI-H23 [10]) of the same compound?
**A.** 1680 nM

**Q.** What about the Activity [11] of the same compound?
**A.** Active

**Q.** What about the growth, % of control at 1 µM (MDA-MB-231 [12]) of the same compound?
**A.** 92.5%

**Q.** What about the growth, % of control at 1 µM (HCT-15 [13]) of the same compound?
**A.** 64.3%

**Q.** And the growth, % of control at 10 µM (NUGC-3 [14])?
**A.** 15.3%

**Q.** And the GI50 (ACHN [15])?
**A.** 3400 nM

**Q.** And the growth, % of control at 1 µM (NCI-H23 [16])?
**A.** 90.7%

**Q.** And the growth, % of control at 0.3 µM (ACHN [17])?
**A.** 101%

**Q.** And the GI50 (NUGC-3 [18])?
**A.** 970 nM

**Q.** What about the growth, % of control at 0.3 µM (NUGC-3 [19]) of the same compound?
**A.** 93%

**Q.** And the growth, % of control at 0.3 µM (HCT-15 [20])?
**A.** 86.5%

**Q.** What about the growth, % of control at 0.1 µM (NUGC-3 [21]) of the same compound?
**A.** 98.4%

**Q.** And the growth, % of control at 0.3 µM (PC-3 [22])?
**A.** 97.7%

**Q.** What about the growth, % of control at 3 µM (NCI-H23 [23]) of the same compound?
**A.** 56.5%

**Q.** And the growth, % of control at 0.3 µM (MDA-MB-231 [24])?
**A.** 98.1%

**Q.** What about the growth, % of control at 10 µM (HCT-15 [25]) of the same compound?
**A.** 11.2%

**Q.** And the growth, % of control at 3 µM (ACHN [26])?
**A.** 64.3%

**Q.** What about the GI50 (HCT-15 [27]) of the same compound?
**A.** 790 nM

**Q.** What about the growth, % of control at 1 µM (PC-3 [28]) of the same compound?
**A.** 51.3%

**Q.** What about the growth, % of control at 0.1 µM (ACHN [29]) of the same compound?
**A.** 99.2%

**Q.** And the growth, % of control at 3 µM (NUGC-3 [30])?
**A.** 37.7%

**Q.** And the growth, % of control at 10 µM (NCI-H23 [31])?
**A.** 5.43%

**Q.** What about the growth, % of control at 0.1 µM (MDA-MB-231 [32]) of the same compound?
**A.** 96%

**Q.** And the growth, % of control at 0.3 µM (NCI-H23 [33])?
**A.** 103%

**Q.** What about the growth, % of control at 1 µM (NUGC-3 [34]) of the same compound?
**A.** 63.8%

**Q.** And the growth, % of control at 3 µM (MDA-MB-231 [35])?
**A.** 59.9%

**Q.** What about the GI50 (MDA-MB-231 [36]) of the same compound?
**A.** 2410 nM

**Q.** What about the growth, % of control at 0.1 µM (PC-3 [37]) of the same compound?
**A.** 97.5%

**Q.** And the growth, % of control at 10 µM (MDA-MB-231 [38])?
**A.** 29.9%

**Q.** Which growth, % of control at 0.1 µM (HCT-15 [2]) does the source give for CCCCCCCCCCCCCC(=O)NCCC[N+](C)(C)C here?
**A.** 83.5%

**Q.** What about the growth, % of control at 10 µM (ACHN [3]) of the same compound?
**A.** 25.4%

**Q.** And the growth, % of control at 0.1 µM (NCI-H23 [4])?
**A.** 99.4%

**Q.** What about the growth, % of control at 1 µM (ACHN [5]) of the same compound?
**A.** 77.1%

**Q.** And the growth, % of control at 10 µM (PC-3 [6])?
**A.** -22.8%

**Q.** And the growth, % of control at 3 µM (PC-3 [7])?
**A.** -4.97%

**Q.** And the growth, % of control at 3 µM (HCT-15 [8])?
**A.** 33%

**Q.** What about the GI50 (PC-3 [9]) of the same compound?
**A.** 390 nM

**Q.** And the GI50 (NCI-H23 [10])?
**A.** 1020 nM

**Q.** And the Activity [11]?
**A.** Active

**Q.** And the growth, % of control at 1 µM (MDA-MB-231 [12])?
**A.** 80.6%

**Q.** And the growth, % of control at 1 µM (HCT-15 [13])?
**A.** 71.6%

**Q.** And the growth, % of control at 10 µM (NUGC-3 [14])?
**A.** 14.8%

**Q.** What about the GI50 (ACHN [15]) of the same compound?
**A.** 1560 nM

**Q.** What about the growth, % of control at 1 µM (NCI-H23 [16]) of the same compound?
**A.** 80.9%

**Q.** What about the growth, % of control at 0.3 µM (ACHN [17]) of the same compound?
**A.** 77.2%

**Q.** What about the GI50 (NUGC-3 [18]) of the same compound?
**A.** 430 nM

**Q.** What about the growth, % of control at 0.3 µM (NUGC-3 [19]) of the same compound?
**A.** 73.2%

**Q.** And the growth, % of control at 0.3 µM (HCT-15 [20])?
**A.** 82.5%

**Q.** And the growth, % of control at 0.1 µM (NUGC-3 [21])?
**A.** 84.9%

**Q.** And the growth, % of control at 0.3 µM (PC-3 [22])?
**A.** 87.3%

**Q.** What about the growth, % of control at 3 µM (NCI-H23 [23]) of the same compound?
**A.** 39.8%

**Q.** What about the growth, % of control at 0.3 µM (MDA-MB-231 [24]) of the same compound?
**A.** 81.2%

**Q.** What about the growth, % of control at 10 µM (HCT-15 [25]) of the same compound?
**A.** 14.7%

**Q.** What about the growth, % of control at 3 µM (ACHN [26]) of the same compound?
**A.** 58.1%

**Q.** What about the GI50 (HCT-15 [27]) of the same compound?
**A.** 790 nM

**Q.** What about the growth, % of control at 1 µM (PC-3 [28]) of the same compound?
**A.** 44.6%

**Q.** What about the growth, % of control at 0.1 µM (ACHN [29]) of the same compound?
**A.** 83.3%

**Q.** And the growth, % of control at 3 µM (NUGC-3 [30])?
**A.** 28.7%

**Q.** And the growth, % of control at 10 µM (NCI-H23 [31])?
**A.** -15.6%

**Q.** What about the growth, % of control at 0.1 µM (MDA-MB-231 [32]) of the same compound?
**A.** 83.4%

**Q.** And the growth, % of control at 0.3 µM (NCI-H23 [33])?
**A.** 96.4%

**Q.** What about the growth, % of control at 1 µM (NUGC-3 [34]) of the same compound?
**A.** 46.7%

**Q.** What about the growth, % of control at 3 µM (MDA-MB-231 [35]) of the same compound?
**A.** 58.1%

**Q.** And the GI50 (MDA-MB-231 [36])?
**A.** 1480 nM

**Q.** What about the growth, % of control at 0.1 µM (PC-3 [37]) of the same compound?
**A.** 85.2%

**Q.** What about the growth, % of control at 10 µM (MDA-MB-231 [38]) of the same compound?
**A.** 19.1%
